Here are results for four molecules from US20210122763A1, “OGA INHIBITOR COMPOUNDS” (Janssen Pharmaceutica NV, priority 2018, published 2021).

By Emax is commonly meant the greatest response seen or fitted, relative to the assay's reference.

The target in this assay is T1, OGA (Homo sapiens, UniProt O60502).
T1 construct: HEK293 cells inducible for P301L mutant human Tau (isoform 2N4R) were established at Janssen; endogenous in cells; host or cells: HEK293 cells inducible for P301L mutant human Tau (2N4R)
T1 sequence (O60502 1-916): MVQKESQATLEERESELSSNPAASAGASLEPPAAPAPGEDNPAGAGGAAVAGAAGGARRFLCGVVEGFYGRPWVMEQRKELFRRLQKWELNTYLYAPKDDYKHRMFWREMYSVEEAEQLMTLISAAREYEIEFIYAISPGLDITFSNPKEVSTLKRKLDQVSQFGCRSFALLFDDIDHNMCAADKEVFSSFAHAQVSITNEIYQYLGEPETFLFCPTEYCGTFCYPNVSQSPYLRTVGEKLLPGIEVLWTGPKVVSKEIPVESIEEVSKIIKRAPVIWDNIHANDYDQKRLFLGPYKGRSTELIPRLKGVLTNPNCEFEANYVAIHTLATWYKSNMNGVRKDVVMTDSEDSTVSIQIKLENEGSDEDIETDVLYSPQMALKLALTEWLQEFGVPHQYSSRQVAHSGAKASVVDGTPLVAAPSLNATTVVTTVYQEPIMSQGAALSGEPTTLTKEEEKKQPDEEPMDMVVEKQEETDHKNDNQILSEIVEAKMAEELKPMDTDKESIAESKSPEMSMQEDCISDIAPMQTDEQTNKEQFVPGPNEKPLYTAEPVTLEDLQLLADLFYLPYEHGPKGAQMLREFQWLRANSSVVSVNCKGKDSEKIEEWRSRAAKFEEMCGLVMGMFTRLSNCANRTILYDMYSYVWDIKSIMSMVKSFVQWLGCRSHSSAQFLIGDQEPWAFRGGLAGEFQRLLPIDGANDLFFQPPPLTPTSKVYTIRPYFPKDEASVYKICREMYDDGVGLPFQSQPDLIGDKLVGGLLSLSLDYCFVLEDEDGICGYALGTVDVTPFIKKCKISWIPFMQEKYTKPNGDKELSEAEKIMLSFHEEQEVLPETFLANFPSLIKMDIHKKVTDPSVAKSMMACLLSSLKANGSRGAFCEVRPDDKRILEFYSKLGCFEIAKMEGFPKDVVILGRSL
As to the kind of experiment: OGA cellular assay (ICC detection of O-GlcNAcylated proteins in HEK293 cells inducible for P301L mutant human Tau). Format: cell-based. To be noted: 6 hours incubation; for Emax: HEK293, HEK293 cells inducible for P301L mutant human Tau, maximum = Thiamet G 200 uM; for EC50: HEK293 cells inducible for P301L mutant human Tau, read-out: Cellular hOGA, pEC50 (converted). Summed up: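 HEK293 cells with inducible P301L 2N4R Tau, seeded in low-glucose medium, were exposed to compounds for 6 hours (0.2% DMSO), then PFA-fixed and stained with CTD110.6. Imaging intensity at 488 nm measured O-GlcNAcylation, with Hoechst nuclei counts for toxicity. IC50s came from non-linear regression, with Thiamet G at 200 uM as maximum inhibition.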

As for `Cc1ncc(OC2CCN(C(C)c3nc4c(cc3F)CCO4)CC2)cn1` (centres unmarked) [Compound 95], the Emax is 92% and the EC50 is 39.8 nM.

`Cc1cc(OC2CCN([C@H](C)c3nc4c(cc3F)OCCO4)CC2)cc(C)n1` (single isomer, unassigned) [Compound 148]: the Emax was 82% and the EC50 is 50.1 nM.

Take `Cc1cc(OC2CCN([C@@H](C)c3nc4nc(C)sc4cc3F)CC2)cc(C)n1` (single isomer, unassigned) [Compound 83]: the Emax turned out to be 86% and the EC50 was 31.6 nM.

On to `Cc1cc(OC2CCN([C@H](C)c3nc4c(cc3F)CCO4)CC2)cc(C)n1` (single isomer, unassigned) [Compound 144], for which the Emax was 81% and the EC50 is 10 nM.
